Assay results published in patent US10538528B2, “5H-pyrrolo[2,3-D]pyrimidin-6(7H)-one derivative” (Taiho Pharmaceutical Co., Ltd., priority 2016, dated 2020).

Columns and labels:
Format in all cases: biochemical
Rsk1 = Rsk1 (Homo sapiens (Human), UniProt Q15418); experiment: Inhibitory effects on Rsk1 kinase activity (QSS Assist FP assay kit); conditions: Rsk1, ATP 30 μM; read-out: Rsk inhibitory activity IC50
Protocol: Inhibitory activity of the compound according to the present invention on Rsk1 kinase activity in vitro was assayed using the QSS Assist™ FP assay kit (Carna Biosciences, Inc.).
In the inhibition assay of inhibitory activity of the compound, the test compound was diluted by serial dilution with dimethyl sulfoxide (DMSO). Subsequently, an Rsk1 protein, a substrate peptide (final concentration: 100 nM), magnesium chloride (final concentration: 10 mM), ATP (final concentration: 30 μM), and the solution of the test compound in DMSO (DMSO final concentration: 5%) were added to the kinase reaction buffer (20 mM HEPES (pH 7.4), 2 mM dithiothreitol, 0.01% Tween-20), and the mixture was incubated at 25° C. for 40 minutes to perform the kinase reaction. The IMAP Progressive Binding Reagent diluted to 400-fold with the IMAP Progressive Binding Buffer A (Molecular Devices, LLC) was added to terminate the kinase reaction.

human Akt1 = human Akt1 (Homo sapiens (Human), UniProt P31749); experiment: Inhibitory effects on Akt1 kinase activity (TR-FRET, biotinylated Crosstide); conditions: Akt1, ATP 150 μM, pre-incubation 120 minutes at 25° C.; read-out: AKT inhibitory activity IC50
Protocol: Akt1 was prepared and assays of inhibitory activity of the compound according to the present invention against Akt1 kinase activity in vitro were conducted according to the method described in Biochem. J., vol. 385, pp. 399-408, 2005 and Cancer Res., vol. 68, pp. 2366-2374, 2008. In the preparation of Akt1 protein, human Akt1 tagged with the middle T antigen was expressed in an insect cell Sf9, Akt1 was prepared through affinity purification and activation by PDK1, and the resultant was stored at −80° C. until the inhibition assays of the compounds. In the inhibition assay of the compounds, Akt1 and the compound according to the present invention were subjected to pre-incubation at 25° C. for 120 minutes in a reaction buffer (15 mM Tris-HCl, pH 7.5, 0.01% Tween-20, 2 mM DTT). Subsequently, biotinylated Crosstide (biotin-[…], Millipore), MgCl2, and ATP were added as substrates at the final concentration of 500 nM, 10 mM, and 150 μM, respectively, and the reaction was allowed to proceed at 25° C. for 60 minutes. EDTA was added to the final concentration of 40 mM to terminate the reaction, a detection liquid containing the Eu-anti-phospho-Crosstide antibody (PerkinElmer) and SureLight APC-SA (PerkinElmer) at the final concentration of 0.5 nM and 62.5 nM, respectively was added, and the reaction was allowed to proceed at room temperature for 2 hours. In the end, the fluorescence levels irradiated with an excitation light of 337 nm were assayed at two different wavelength levels (i.e., 620 nm and 665 nm) using PI-HERAstar FS (BMG LABTECH) or PHERAstar (BMG LABTECH). The level of the phosphorylation reaction was determined on the basis of the ratio of fluorescence levels at two wavelength levels, and the concentration of the compound at which phosphorylation could be inhibited by 50% was defined as the IC50 level (nM) and shown in Table 2.
As reference compounds, conventional Comparative Example A (WO 2010/056563 (Example 31)) and Comparative Example B having inhibitory activity against Akt were used.

S6K1 = S6K1 (Homo sapiens (Human), UniProt P23443); experiment: Inhibitory effects on S6K1 kinase activity (QSS Assist FP assay kit); conditions: S6K1, ATP 25 μM; read-out: S6K inhibitory activity IC50
Protocol: Inhibitory activity of the compound according to the present invention on S6K1 kinase activity in vitro was assayed using the QSS Assist™ FP assay kit (Carna Biosciences, Inc.).
In the inhibition assay for inhibitory activity of the compound, the test compound was diluted by serial dilution with dimethyl sulfoxide (DMSO). Subsequently, an S6K protein, a substrate peptide (final concentration: 100 nM), magnesium chloride (final concentration: 5 mM), ATP (final concentration: 25 μM), and the solution of the test compound in DMSO (final DMSO concentration: 5%) were added to the kinase reaction buffer (20 mM HEPES (pH 7.4), 2 mM dithiothreitol, 0.01% Tween-20), and the mixture was incubated at 25° C. for 30 minutes to perform the kinase reaction. The IMAP Progressive Binding Reagent diluted to 400-fold with the IMAP Progressive Binding Buffer A (Molecular Devices, LLC) was added thereto to terminate the kinase reaction. The reaction product was allowed to stand at room temperature in the dark for 120 minutes and assayed with the use of PHERAstar (BMG LABTECH; excitation wavelength: 485 nm; detection wavelength: 520 nm). The level of phosphorylation reaction was determined based on the degree of fluorescence polarization, and the concentration of the compound at which phosphorylation could be inhibited by 50% was defined as the IC50 level (nM) and shown in Table 4.

S6K1, sequence (P23443 whole entry): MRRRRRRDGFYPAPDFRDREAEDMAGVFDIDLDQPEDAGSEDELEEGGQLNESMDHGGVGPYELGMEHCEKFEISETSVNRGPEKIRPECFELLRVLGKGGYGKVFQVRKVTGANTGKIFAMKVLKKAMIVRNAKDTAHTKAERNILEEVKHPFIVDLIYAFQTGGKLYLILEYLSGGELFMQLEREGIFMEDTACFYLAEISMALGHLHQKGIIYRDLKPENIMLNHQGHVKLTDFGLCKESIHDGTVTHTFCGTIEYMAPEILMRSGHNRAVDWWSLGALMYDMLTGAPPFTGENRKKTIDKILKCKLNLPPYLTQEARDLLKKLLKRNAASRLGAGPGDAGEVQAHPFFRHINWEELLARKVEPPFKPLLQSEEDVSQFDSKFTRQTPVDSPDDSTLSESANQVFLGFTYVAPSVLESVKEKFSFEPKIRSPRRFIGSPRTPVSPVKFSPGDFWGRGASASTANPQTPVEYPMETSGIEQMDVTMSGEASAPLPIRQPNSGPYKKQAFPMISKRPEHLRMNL
human Akt1, sequence (P31749 whole entry): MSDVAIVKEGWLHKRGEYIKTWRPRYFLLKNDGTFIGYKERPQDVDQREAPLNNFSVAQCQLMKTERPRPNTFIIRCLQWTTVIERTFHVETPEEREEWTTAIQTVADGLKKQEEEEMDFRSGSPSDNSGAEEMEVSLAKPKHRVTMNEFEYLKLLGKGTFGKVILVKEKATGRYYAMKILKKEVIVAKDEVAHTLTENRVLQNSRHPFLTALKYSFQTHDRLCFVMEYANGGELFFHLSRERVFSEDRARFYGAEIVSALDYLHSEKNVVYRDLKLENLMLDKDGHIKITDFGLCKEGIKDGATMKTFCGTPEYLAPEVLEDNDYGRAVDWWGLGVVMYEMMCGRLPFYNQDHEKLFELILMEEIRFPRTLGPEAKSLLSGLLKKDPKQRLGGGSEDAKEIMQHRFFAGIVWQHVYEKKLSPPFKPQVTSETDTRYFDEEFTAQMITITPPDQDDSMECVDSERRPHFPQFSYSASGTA
Rsk1, sequence (Q15418 whole entry): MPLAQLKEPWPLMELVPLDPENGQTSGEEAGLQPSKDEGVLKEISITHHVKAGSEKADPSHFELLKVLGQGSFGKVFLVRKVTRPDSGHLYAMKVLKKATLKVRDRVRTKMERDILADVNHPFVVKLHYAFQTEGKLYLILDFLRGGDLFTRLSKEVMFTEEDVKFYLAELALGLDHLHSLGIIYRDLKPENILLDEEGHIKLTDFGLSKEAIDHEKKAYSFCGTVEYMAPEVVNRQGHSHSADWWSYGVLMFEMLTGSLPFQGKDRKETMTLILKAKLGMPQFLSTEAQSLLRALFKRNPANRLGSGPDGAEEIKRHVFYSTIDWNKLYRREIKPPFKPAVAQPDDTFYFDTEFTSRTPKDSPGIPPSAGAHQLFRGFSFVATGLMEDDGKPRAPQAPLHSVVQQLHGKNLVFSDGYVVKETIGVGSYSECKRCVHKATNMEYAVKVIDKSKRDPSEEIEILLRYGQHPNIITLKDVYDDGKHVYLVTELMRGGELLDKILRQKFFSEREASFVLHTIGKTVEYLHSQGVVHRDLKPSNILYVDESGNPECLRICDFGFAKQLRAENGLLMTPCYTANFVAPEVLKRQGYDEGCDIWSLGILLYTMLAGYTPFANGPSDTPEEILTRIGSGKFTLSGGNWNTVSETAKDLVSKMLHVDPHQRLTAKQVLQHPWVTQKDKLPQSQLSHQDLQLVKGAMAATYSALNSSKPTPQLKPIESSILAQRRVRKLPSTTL

IC50 (Rsk1)	IC50 (human Akt1)	IC50 (S6K1)	SMILES
0.7 nM	3.5 nM	0.3 nM	CC(C)NCCNc1ccc(-c2cnc(F)c(F)c2)nc1C1CCN(c2ncnc3c2C(C)(C)C(=O)N3)CC1 [Compound 5, 4-(4-(5′,6′-Difluoro-5-((2-(isopropylamino)ethyl)amino)-[2,3′-bipyridin]-6-yl)piperidin-1-yl)-5,5-dimethyl-5H-pyrrolo[2,3-d]pyrimidin-6(7H)-one]
1.8 nM	7.6 nM	0.6 nM	CC(C)NCCNc1ccc(-c2nnc(C(F)F)o2)nc1C1CCN(c2ncnc3c2C(C)(C)C(=O)N3)CC1 [Compound 31, 4-(4-(6-(5-(Difluoromethyl)-1,3,4-oxadiazol-2-yl)-3-((2-(isopropylamino)ethyl)amino)pyridin-2-yl)piperidin-1-yl)-5,5-dimethyl-5H-pyrrolo[2,3-d]pyrimidin-6(7H)-one]
1 nM	2.5 nM	0.5 nM	CC(C)NCCNc1ccc(-c2nnc(C(F)(F)F)o2)nc1C1CCN(c2ncnc3c2C(C)(C)C(=O)N3)CC1 [Compound 33, 4-(4-(3-((2-(Isopropylamino)ethyl)amino)-6-(5-(trifluoromethyl)-1,3,4-oxadiazol-2-yl)pyridin-2-yl)piperidin-1-yl)-5,5-dimethyl-5H-pyrrolo[2,3-d]pyrimidin-6(7H)-one]
0.7 nM	5.8 nM	0.3 nM	CC(C)NCCNc1ccc(-c2cc(Cl)nn2C)nc1C1CCN(c2ncnc3c2C(C)(C)C(=O)N3)CC1 [Compound 11, 4-(4-(6-(3-Chloro-1-methyl-1H-pyrazol-5-yl)-3-((2-(isopropylamino)ethyl)amino)pyridin-2-yl)piperidin-1-yl)-5,5-dimethyl-5H-pyrrolo[2,3-d]pyrimidin-6(7H)-one]
0.4 nM	1 nM	0.4 nM	CC(C)(C)NCCNc1ccc(-c2nc(C(F)(F)F)no2)nc1C1CCN(c2ncnc3c2C(C)(C)C(=O)N3)CC1 [Compound 43, 4-(4-(3-((2-(Tert-butylamino)ethyl)amino)-6-(3-(trifluoromethyl)-1,2,4-oxadiazol-5-yl)pyridin-2-yl)piperidin-1-yl)-5,5-dimethyl-5H-pyrrolo[2,3-d]pyrimidin-6(7H)-one]
0.9 nM	1 nM	0.4 nM	CN(CCNc1ccc(-c2nnc(C(F)(F)F)o2)nc1C1CCN(c2ncnc3c2C(C)(C)C(=O)N3)CC1)C(C)(C)C [Compound 34, 4-(4-(3-((2-(Tert-butyl(methyl)amino)ethyl)amino)-6-(5-(trifluoromethyl)-1,3,4-oxadiazol-2-yl)pyridin-2-yl)piperidin-1-yl)-5,5-dimethyl-5H-pyrrolo[2,3-d]pyrimidin-6(7H)-one]
1.3 nM	4 nM	0.7 nM	COc1cncc(-c2ccc(NCCN(C)C)c(C3CCN(c4ncnc5c4C(C)C(=O)N5)CC3)n2)c1 (stereo not drawn) [Compound 21, 4-(4-(5-((2-(Dimethylamino)ethyl)amino)-5′-methoxy-[2,3′-bipyridin]-6-yl)piperidin-1-yl)-5-methyl-5H-pyrrolo[2,3-d]pyrimidin-6(7H)-one]
0.6 nM	4.1 nM	0.3 nM	CC(C)NCCNc1ccc(-c2nnc(C(F)F)s2)nc1C1CCN(c2ncnc3c2C(C)(C)C(=O)N3)CC1 [Compound 39, 4-(4-(6-(5-(Difluoromethyl)-1,3,4-thiadiazol-2-yl)-3-((2-(isopropylamino)ethyl)amino)pyridin-2-yl)piperidin-1-yl)-5,5-dimethyl-5H-pyrrolo[2,3-d]pyrimidin-6(7H)-one]
0.5 nM	3.3 nM	0.3 nM	CC(C)(C)NCCNc1ccc(-c2nnc(C(F)F)s2)nc1C1CCN(c2ncnc3c2C(C)(C)C(=O)N3)CC1 [Compound 37, 4-(4-(3-((2-(Tert-butylamino)ethyl)amino)-6-(5-(difluoromethyl)-1,3,4-thiadiazol-2-yl)pyridin-2-yl)piperidin-1-yl)-5,5-dimethyl-5H-pyrrolo[2,3-d]pyrimidin-6(7H)-one]
1.1 nM	0.6 nM	0.7 nM	CC1C(=O)Nc2ncnc(N3CCC(c4nc(-c5cccnc5F)ccc4NCCN4CCCC4)CC3)c21 (stereo not drawn) [Compound 17, 4-(4-(2′-Fluoro-5-((2-(pyrrolidin-1-yl)ethyl)amino)-[2,3′-bipyridin]-6-yl)piperidin-1-yl)-5-methyl-5H-pyrrolo[2,3-d]pyrimidin-6(7H)-one]
0.9 nM	0.4 nM	0.5 nM	CC1C(=O)Nc2ncnc(N3CCC(c4nc(-c5cncc(F)c5)ccc4NCCN4CCCC4)CC3)c21 (stereo not drawn) [Compound 19, 4-(4-(5′-Fluoro-5-((2-(pyrrolidin-1-yl)ethyl)amino)-[2,3′-bipyridin]-6-yl)piperidin-1-yl)-5-methyl-5H-pyrrolo[2,3-d]pyrimidin-6(7H)-one]
1.5 nM	0.7 nM	0.4 nM	CC1C(=O)Nc2ncnc(N3CCC(c4nc(-c5ccsc5)ccc4NCCN(C)C)CC3)c21 (stereo not drawn) [Compound 23, 4-(4-(3-((2-(Dimethylamino)ethyl)amino)-6-(thiophen-3-yl)pyridin-2-yl)piperidin-1-yl)-5-methyl-5H-pyrrolo[2,3-d]pyrimidin-6(7H)-one]
0.9 nM	0.6 nM	0.6 nM	CC1C(=O)Nc2ncnc(N3CCC(c4nc(-c5cc(C(F)(F)F)nn5C)ccc4NCCN4CCCC4)CC3)c21 (stereo not drawn) [Compound 20, 5-Methyl-4-(4-(6-(1-methyl-3-(trifluoromethyl)-1H-pyrazol-5-yl)-3-((2-(pyrrolidin-1-yl)ethyl)amino)pyridin-2-yl)piperidin-1-yl)-5H-pyrrolo[2,3-d]pyrimidin-6(7H)-one]
0.6 nM	3.6 nM	0.3 nM	CC(C)(C)NCCNc1ccc(-c2nnc(C3CC3)s2)nc1C1CCN(c2ncnc3c2C(C)(C)C(=O)N3)CC1 [Compound 40, 4-(4-(3-((2-(Tert-butylamino)ethyl)amino)-6-(5-cyclopropyl-1,3,4-thiadiazol-2-yl)pyridin-2-yl)piperidin-1-yl)-5,5-dimethyl-5H-pyrrolo[2,3-d]pyrimidin-6(7H)-one]
1.4 nM	0.5 nM	0.8 nM	CC1C(=O)Nc2ncnc(N3CCC(c4nc(-c5ccsc5)ccc4NCCN4CCCC4)CC3)c21 (stereo not drawn) [Compound 18, 5-Methyl-4-(4-(3-((2-(pyrrolidin-1-yl)ethyl)amino)-6-(thiophen-3-yl)pyridin-2-yl)piperidin-1-yl)-5H-pyrrolo[2,3-d]pyrimidin-6(7H)-one]
